Values quoted from earlier work, collected in PMC7587962, “Evaluation of Cytotoxicity and α-Glucosidase Inhibitory Activity of Amide and Polyamino-Derivatives of Lupane Triterpenoids” (Molecules, 2020).

Legend:
CCRF-CEM = tested on: CCRF-CEM; parameters: method as in PMID 25405285; conditions: standard drugs used by NCI as control; cited from earlier work
K-562 = tested on: K-562; parameters: method as in PMID 25405285; conditions: standard drugs used by NCI as control; cited from earlier work
MOLT-4 = tested on: MOLT-4; parameters: method as in PMID 25405285; conditions: standard drugs used by NCI as control; cited from earlier work
RPMI-8226 = tested on: RPMI-8226; parameters: method as in PMID 25405285; conditions: standard drugs used by NCI as control; cited from earlier work
A549/ATCC = tested on: A549/ATCC; parameters: method as in PMID 25405285; conditions: standard drugs used by NCI as control; cited from earlier work
HOP-62 = tested on: HOP-62; parameters: method as in PMID 25405285; conditions: standard drugs used by NCI as control; cited from earlier work
HOP-92 = tested on: HOP-92; parameters: method as in PMID 25405285; conditions: standard drugs used by NCI as control; cited from earlier work
NCI-H226 = tested on: NCI-H226; parameters: method as in PMID 25405285; conditions: standard drugs used by NCI as control; cited from earlier work
NCI-H23 = tested on: NCI-H23; parameters: method as in PMID 25405285; conditions: standard drugs used by NCI as control; cited from earlier work
NCI-H460 = tested on: NCI-H460; parameters: method as in PMID 25405285; conditions: standard drugs used by NCI as control; cited from earlier work
NCI-H522 = tested on: NCI-H522; parameters: method as in PMID 25405285; conditions: standard drugs used by NCI as control; cited from earlier work
COLO 205 = tested on: COLO 205; parameters: method as in PMID 25405285; conditions: standard drugs used by NCI as control; cited from earlier work
HCC-2998 = tested on: HCC-2998; parameters: method as in PMID 25405285; conditions: standard drugs used by NCI as control; cited from earlier work
HCT-116 = tested on: HCT-116; parameters: method as in PMID 25405285; conditions: standard drugs used by NCI as control; cited from earlier work
HCT-15 = tested on: HCT-15; parameters: method as in PMID 25405285; conditions: standard drugs used by NCI as control; cited from earlier work
HT29 = tested on: HT29; parameters: method as in PMID 25405285; conditions: standard drugs used by NCI as control; cited from earlier work
KM12 = tested on: KM12; parameters: method as in PMID 25405285; conditions: standard drugs used by NCI as control; cited from earlier work
SW-620 = tested on: SW-620; parameters: method as in PMID 25405285; conditions: standard drugs used by NCI as control; cited from earlier work
SF-268 = tested on: SF-268; parameters: method as in PMID 25405285; conditions: standard drugs used by NCI as control; cited from earlier work
SF-539 = tested on: SF-539; parameters: method as in PMID 25405285; conditions: standard drugs used by NCI as control; cited from earlier work
SNB-19 = tested on: SNB-19; parameters: method as in PMID 25405285; conditions: standard drugs used by NCI as control; cited from earlier work
SNB-75 = tested on: SNB-75; parameters: method as in PMID 25405285; conditions: standard drugs used by NCI as control; cited from earlier work
U251 = tested on: U251; parameters: method as in PMID 25405285; conditions: standard drugs used by NCI as control; cited from earlier work
LOX IMVI = tested on: LOX IMVI; parameters: method as in PMID 25405285; conditions: standard drugs used by NCI as control; cited from earlier work
MALME-3M = tested on: MALME-3M; parameters: method as in PMID 25405285; conditions: standard drugs used by NCI as control; cited from earlier work
M14 = tested on: M14; parameters: method as in PMID 25405285; conditions: standard drugs used by NCI as control; cited from earlier work
MDA-MB-435 = tested on: MDA-MB-435; parameters: method as in PMID 25405285; conditions: standard drugs used by NCI as control; cited from earlier work
SK-MEL-2 = tested on: SK-MEL-2; parameters: method as in PMID 25405285; conditions: standard drugs used by NCI as control; cited from earlier work
SK-MEL-28 = tested on: SK-MEL-28; parameters: method as in PMID 25405285; conditions: standard drugs used by NCI as control; cited from earlier work
SK-MEL-5 = tested on: SK-MEL-5; parameters: method as in PMID 25405285; conditions: standard drugs used by NCI as control; cited from earlier work
UACC-257 = tested on: UACC-257; parameters: method as in PMID 25405285; conditions: standard drugs used by NCI as control; cited from earlier work
UACC-62 = tested on: UACC-62; parameters: method as in PMID 25405285; conditions: standard drugs used by NCI as control; cited from earlier work
IGROV1 = tested on: IGROV1; parameters: method as in PMID 25405285; conditions: standard drugs used by NCI as control; cited from earlier work
OVCAR-3 = tested on: OVCAR-3; parameters: method as in PMID 25405285; conditions: standard drugs used by NCI as control; cited from earlier work
OVCAR-4 = tested on: OVCAR-4; parameters: method as in PMID 25405285; conditions: standard drugs used by NCI as control; cited from earlier work
OVCAR-5 = tested on: OVCAR-5; parameters: method as in PMID 25405285; conditions: standard drugs used by NCI as control; cited from earlier work
OVCAR-8 = tested on: OVCAR-8; parameters: method as in PMID 25405285; conditions: standard drugs used by NCI as control; cited from earlier work
NCI/ADR-RES = tested on: NCI/ADR-RES; parameters: method as in PMID 25405285; conditions: standard drugs used by NCI as control; cited from earlier work
SK-OV-3 = tested on: SK-OV-3; parameters: method as in PMID 25405285; conditions: standard drugs used by NCI as control; cited from earlier work
786-0 = tested on: 786-0; parameters: method as in PMID 25405285; conditions: standard drugs used by NCI as control; cited from earlier work
A498 = tested on: A498; parameters: method as in PMID 25405285; conditions: standard drugs used by NCI as control; cited from earlier work
ACHN = tested on: ACHN; parameters: method as in PMID 25405285; conditions: standard drugs used by NCI as control; cited from earlier work
CAKI-1 = tested on: CAKI-1; parameters: method as in PMID 25405285; conditions: standard drugs used by NCI as control; cited from earlier work
RXF 393 = tested on: RXF 393; parameters: method as in PMID 25405285; conditions: standard drugs used by NCI as control; cited from earlier work
SN12C = tested on: SN12C; parameters: method as in PMID 25405285; conditions: standard drugs used by NCI as control; cited from earlier work
TK-10 = tested on: TK-10; parameters: method as in PMID 25405285; conditions: standard drugs used by NCI as control; cited from earlier work
UO-31 = tested on: UO-31; parameters: method as in PMID 25405285; conditions: standard drugs used by NCI as control; cited from earlier work
PC-3 = tested on: PC-3; parameters: method as in PMID 25405285; conditions: standard drugs used by NCI as control; cited from earlier work
DU-145 = tested on: DU-145; parameters: method as in PMID 25405285; conditions: standard drugs used by NCI as control; cited from earlier work
MCF7 = tested on: MCF7; parameters: method as in PMID 25405285; conditions: standard drugs used by NCI as control; cited from earlier work
MDA-MB-231/ATCC = tested on: MDA-MB-231/ATCC; parameters: method as in PMID 25405285; conditions: MDA-MB-31/ATCC; standard drugs used by NCI as control; cited from earlier work
HS 578T = tested on: HS 578T; parameters: method as in PMID 25405285; conditions: standard drugs used by NCI as control; cited from earlier work
BT-549 = tested on: BT-549; parameters: method as in PMID 25405285; conditions: standard drugs used by NCI as control; cited from earlier work
T-47D = tested on: T-47D; parameters: method as in PMID 25405285; conditions: standard drugs used by NCI as control; cited from earlier work
HL-60(TB) = conditions: standard drugs used by NCI as control; cited from earlier work

Q: With `O=c1[nH]cc(F)c(=O)[nH]1` [Compound 5-FU, 5-fluorouracil] as the molecule, how does the GI50 (CCRF-CEM) read?
A: 9970 nM

Q: What about the GI50 (K-562) of the same molecule?
A: 3580 nM

Q: What about the GI50 (MOLT-4) of the same molecule?
A: 350 nM

Q: What about the GI50 (RPMI-8226) of the same molecule?
A: 40 nM

Q: And the GI50 (A549/ATCC)?
A: 180 nM

Q: What about the GI50 (HOP-62) of the same molecule?
A: 390 nM

Q: What about the GI50 (HOP-92) of the same molecule?
A: 77900 nM

Q: What about the GI50 (NCI-H226) of the same molecule?
A: 54700 nM

Q: What about the GI50 (NCI-H23) of the same molecule?
A: 330 nM

Q: And the GI50 (NCI-H460)?
A: 50 nM

Q: What about the GI50 (NCI-H522) of the same molecule?
A: 7270 nM

Q: And the GI50 (COLO 205)?
A: 150 nM

Q: And the GI50 (HCC-2998)?
A: 50 nM

Q: And the GI50 (HCT-116)?
A: 220 nM

Q: And the GI50 (HCT-15)?
A: 110 nM

Q: What about the GI50 (HT29) of the same molecule?
A: 170 nM

Q: And the GI50 (KM12)?
A: 210 nM

Q: And the GI50 (SW-620)?
A: 920 nM

Q: What about the GI50 (SF-268) of the same molecule?
A: 1620 nM

Q: What about the GI50 (SF-539) of the same molecule?
A: 60 nM

Q: And the GI50 (SNB-19)?
A: 3810 nM

Q: What about the GI50 (SNB-75) of the same molecule?
A: 78700 nM

Q: And the GI50 (U251)?
A: 920 nM

Q: What about the GI50 (LOX IMVI) of the same molecule?
A: 240 nM

Q: And the GI50 (MALME-3M)?
A: 50 nM

Q: And the GI50 (M14)?
A: 980 nM

Q: And the GI50 (MDA-MB-435)?
A: 70 nM

Q: And the GI50 (SK-MEL-2)?
A: 56700 nM

Q: And the GI50 (SK-MEL-28)?
A: 1030 nM

Q: And the GI50 (SK-MEL-5)?
A: 460 nM

Q: What about the GI50 (UACC-257) of the same molecule?
A: 3550 nM

Q: What about the GI50 (UACC-62) of the same molecule?
A: 520 nM

Q: And the GI50 (IGROV1)?
A: 1220 nM

Q: And the GI50 (OVCAR-3)?
A: 10 nM

Q: What about the GI50 (OVCAR-4) of the same molecule?
A: 4430 nM

Q: What about the GI50 (OVCAR-5) of the same molecule?
A: 10900 nM

Q: And the GI50 (OVCAR-8)?
A: 1740 nM

Q: What about the GI50 (NCI/ADR-RES) of the same molecule?
A: 310 nM

Q: And the GI50 (SK-OV-3)?
A: 21800 nM

Q: And the GI50 (786-0)?
A: 720 nM

Q: And the GI50 (A498)?
A: 350 nM

Q: And the GI50 (ACHN)?
A: 270 nM

Q: What about the GI50 (CAKI-1) of the same molecule?
A: 70 nM

Q: What about the GI50 (RXF 393) of the same molecule?
A: 2610 nM

Q: And the GI50 (SN12C)?
A: 490 nM

Q: And the GI50 (TK-10)?
A: 1120 nM

Q: And the GI50 (UO-31)?
A: 1420 nM

Q: And the GI50 (PC-3)?
A: 2360 nM

Q: What about the GI50 (DU-145) of the same molecule?
A: 360 nM

Q: And the GI50 (MCF7)?
A: 70 nM

Q: And the GI50 (MDA-MB-231/ATCC)?
A: 6600 nM

Q: And the GI50 (HS 578T)?
A: 9770 nM

Q: What about the GI50 (BT-549) of the same molecule?
A: 10600 nM

Q: What about the GI50 (T-47D) of the same molecule?
A: 8120 nM

Q: And the GI50 (HL-60(TB))?
A: 2300 nM
